Data set [1] relates to Ctenocephalides felis. Description: Ctenocephalides felis oral test (CTECFE). It is filed as in vivo. As to conditions: 100 ppm in citrated cattle blood, oral uptake, adult fleas, after 2 days; 100 % = all fleas killed. On the procedure:
Ctenocephalides felis oral (CTECFE)
Lösungsmittel: 1 Gewichtsteil Dimethylsulfoxid
Zwecks Herstellung einer zweckmäßigen Wirkstoffzubereitung vermischt man 10 mg Wirkstoff mit 0,5 ml Dimethylsulfoxid. Ein Teil des Konzentrats wird mit citriertem Rinderblut verdünnt und die gewünschte Konzentration hergestellt.
20 nüchterne adulte Flöhe (Ctenocephalides felis) werden in eine Kammer eingesetzt, die oben und unten mit Gaze verschlossen ist. Auf die Kammer wird ein Metallzylinder gestellt, dessen Unterseite mit Parafilm verschlossen ist. Der Zylinder enthält die Blut-Wirkstoffzubereitung, die von den Flöhen durch die Parafilmmembran aufgenommen werden kann. Nach 2 Tagen wird die Abtötung in % bestimmt. Dabei bedeutet 100 %, dass alle Flöhe abgetötet wurden; 0 % bedeutet, dass kein Floh abgetötet wurde.

Data set [2] deals with Boophilus microplus. Description: Boophilus microplus test (BOOPMI injection). It is filed as in vivo. The note with it: 20 µg / Tier, injection into the abdomen, after 7 days; 100 % = no tick laid fertile eggs. On the procedure: Boophilus microplus -Test (BOOPMI Injektion)
(§1) Lösungsmittel: Dimethylsulfoxid
Zur Herstellung einer zweckmäßigen Wirkstoffzubereitung vermischt man 10 mg Wirkstoff mit 0,5 ml Lösungsmittel und verdünnt das Konzentrat mit Wasser auf die gewünschte Konzentration. Die Wirkstofflösung wird in das Abdomen (Boophilus microplus) injiziert, die Tiere werden in Schalen überführt und in einem klimatisierten Raum aufbewahrt. Die Wirkungskontrolle erfolgt auf Ablage fertiler Eier. Nach 7 Tagen wird die Wirkung in % bestimmt. Dabei bedeutet 100%, dass keine Zecke fertile Eier gelegt hat.

In data set [3] the test system is Phaedon cochleariae. Description: Phaedon test (PHAECO spray treatment). It counts as in vivo. As to conditions: 500 g/ha, sprayed Chinese cabbage leaf discs, larvae, after 7 days; 100 % = all beetle larvae killed. The source says:
Phaedon-Test (PHAECO Spritzbehandlung)
(§2) • Lösungsmittel: 78,0 GewichtsteileAceton 1,5 Gewichtsteile Dimethylformamid • Emulgator: 0,5 Gewichtsteile Alkylarylpolyglykolether
(§3) Zur Herstellung einer zweckmäßigen Wirkstoffzubereitung vermischt man 1 Gewichtsteil Wirkstoff mit den angegebenen Mengen Lösungsmittel und Emulgator und verdünnt das Konzentrat mit emulgatorhaltigem Wasser auf die gewünschte Konzentration.
Chinakohlblattscheiben (Brassica pekinensis) werden mit einer Wirkstoffzubereitung der gewünschten Konzentration gespritzt und nach dem Abtrocknen mit Larven des Meerrettichblattkäfers (Phaedon cochleariae) besetzt.
Nach 7 Tagen wird die Wirkung in % bestimmt. Dabei bedeutet 100 %, dass alle Käferlarven abgetötet wurden; 0 % bedeutet, dass keine Käferlarven abgetötet wurden.

Data set [4] relates to Spodoptera frugiperda. The data set can be described thus: Spodoptera frugiperda test (SPODFR spray treatment). It counts as in vivo. The note with it: 500 g/ha, sprayed maize leaf discs, caterpillars, after 7 days; 100 % = all caterpillars killed.
Text: Spodoptera frugiperda-Test (SPODFR Spritzbehandlung)
as §2, §3
Maisblattscheiben (Zea mays) werden mit einer Wirkstoffzubereitung der gewünschten Konzentration gespritzt und nach dem Abtrocknen mit Raupen des Heerwurms (Spodoptera frugiperda) besetzt.Nach 7 Tagen wird die Wirkung in % bestimmt. Dabei bedeutet 100 %, dass alle Raupen abgetötet wurden; 0 % bedeutet, dass keine Raupe abgetötet wurde.

Data set [5] concerns Tetranychus urticae. It counts as in vivo. As to conditions: foliar, 500 g/ha, 144 h.
Text: Tetranychus-Test, OP-resistent (TETRUR Spritzbehandlung)
as §2, §3
Bohnenblattscheiben (Phaseolus vulgaris), die von allen Stadien der Gemeinen Spinnmilbe (Tetranychus urticae) befallen sind, werden mit einer Wirkstoffzubereitung der gewünschten Konzentration gespritzt.
Nach 6 Tagen wird die Wirkung in % bestimmt. Dabei bedeutet 100 %, dass alle Spinnmilben abgetötet wurden; 0 % bedeutet, dass keine Spinnmilben abgetötet wurden.

Data set [6] is described as follows: physchem.
In data set [7] the test system is Lucilia cuprina Larven. Description: Lucilia cuprina test (LUCICU). The note with it: 100 ppm, treated horse meat, larvae, after 2 days; 100 % = all larvae killed. It is filed as in vivo. On the procedure: Lucilia cuprina-Test (LUCICU)
as §1
Zur Herstellung einer zweckmäßigen Wirkstoffzubereitung vermischt man 10 mg Wirkstoff mit 0,5 ml Dimethylsulfoxid und verdünnt das Konzentrat mit Wasser auf die gewünschte Konzentration.Gefäße, die Pferdefleisch enthalten, das mit der Wirkstoffzubereitung der gewünschten Konzentration behandelt wurde, werden mit Lucilia cuprina Larven besetzt.
Nach 2 Tagen wird die Abtötung in % bestimmt. Dabei bedeutet 100 %, dass alle Larven abgetötet wurden; 0 % bedeutet, dass keine Larven abgetötet wurden.

Data set [8] deals with Musca domestica Adulten. The data set can be described thus: Musca domestica test (MUSCDO). It is filed as in vivo. As to conditions: 100 ppm, treated sponge, adults, after 2 days; 100 % = all flies killed. The protocol:
Musca domestica-Test (MUSCDO)
as §1
Zur Herstellung einer zweckmäßigen Wirkstoffzubereitung vermischt man 10 mg Wirkstoff mit 0,5 ml Dimethylsulfoxid und verdünnt das Konzentrat mit Wasser auf die gewünschte Konzentration. Gefäße, die einen Schwamm enthalten, der mit der Wirkstoffzubereitung der gewünschten Konzentration behandelt wurde, werden mit Musca domestica Adulten besetzt.
Nach 2 Tagen wird die Abtötung in % bestimmt. Dabei bedeutet 100 %, dass alle Fliegen abgetötet wurden; 0 % bedeutet, dass keine Fliegen abgetötet wurden.

Broadly, the chromatographic logP is lipophilicity estimated from chromatographic retention. A high value points to a more lipophilic compound. As for `Cn1nc(C(F)(F)C(F)(F)F)c(C(F)(F)F)c1C(=O)Nc1ccc(Cl)c(C(=O)Nc2cccnc2)c1` [Ia-2], in data set [1], the “Wirkung (Abtötung in %)” value was determined as 100%. Further, the Wirkung in data set [2] was found to be 100%; in data set [3], 100%; in data set [4] it was 100%; in data set [5], 90%. The chromatographic logP in data set [6] stood at 2.69.
Turning to `Cn1nc(C(F)(F)C(F)(F)F)c(C(F)(F)F)c1C(=O)Nc1ccc(Cl)c(C(=O)Nc2ccccn2)c1` [Ia-8, N-[4-Chlor-3-(pyrid-2-yl-carbamoyl)phenyl]-1-methyl-3-(pentafluorethyl)-4-(trifluormethyl)-1H-pyrazol-5-carboxamid], the “Wirkung (Abtötung in %)” value in data set [1] and in data set [7] was 100% in each case. Moreover, the Wirkung in data set [2] was 100%; in data set [3] it was 100%; in data set [4], 100%; in data set [5], 80%. Besides, in data set [6], the chromatographic logP was 3.53.
Consider `Cn1nc(C(F)(F)C(F)(F)F)c(C(F)(F)F)c1C(=O)Nc1ccc(Cl)c(C(=O)Nc2ccc(Cl)nc2)c1` [Ia-11], for which the figures for the “Wirkung (Abtötung in %)” value in data set [1] and in data set [7] were 80% and 100%, respectively. Besides, the Wirkung was 100% in data set [2], 100% in data set [3], 100% in data set [4] and 90% in data set [5]. The compound also yielded a chromatographic logP in data set [6] of 3.68.
With `Cn1nc(C(F)(F)C(F)(F)F)c(C(F)(F)F)c1C(=O)Nc1ccc(Cl)c(C(=O)Nc2ccccc2)c1` [Ia-15], the “Wirkung (Abtötung in %)” value in data set [1] and in data set [7] was 100% throughout. Also, the Wirkung in data set [2] came out at 100%; in data set [3], 100%; in data set [4], 100%; in data set [5], 90%. The chromatographic logP in data set [6] turned out to be 3.84.
In the case of `COc1cccc(NC(=O)c2cc(NC(=O)c3c(C(F)(F)F)c(C(F)(F)C(F)(F)F)nn3C)ccc2Cl)c1` [Ia-16], the “Wirkung (Abtötung in %)” value in data set [1] is 95%; in data set [7], 90%. In addition, the Wirkung in data set [2] was 100%; in data set [3], 100%; in data set [4], 100%; in data set [5], 80%. For the same compound, the chromatographic logP in data set [6] is 3.84.
Consider `Cn1nc(C(F)(F)C(F)(F)F)c(C(F)(F)F)c1C(=O)Nc1ccc(Cl)c(C(=O)Nc2ccc(F)cc2)c1` [Ia-17], for which the “Wirkung (Abtötung in %)” value in data set [1] turned out to be 90%; in data set [7], 100%; in data set [8], 100%. In addition, the Wirkung stood at 100% in data set [2], 100% in data set [3], 100% in data set [4] and 80% in data set [5]. Moreover, in data set [6], the chromatographic logP came to 3.89.
For `Cn1nc(C(F)(F)C(F)(F)F)c(C(F)(F)F)c1C(=O)Nc1ccc(Cl)c(C(=O)Nc2ccccc2F)c1` [Ia-18, N-{4-Chlor-3-[(2-fluorphenyl)carbamoyl]phenyl}-1-methyl-3-(pentafluorethyl)-4-(trifluormethyl)-1H-pyrazol-5-carboxamid], the “Wirkung (Abtötung in %)” value in data set [1] is 100%. Moreover, the Wirkung in data set [2], in data set [3], in data set [4] and in data set [5] was 100% throughout. Further, the chromatographic logP in data set [6] worked out at 3.94.
Regarding `Cn1nc(C(F)(F)C(F)(F)F)c(C(F)(F)F)c1C(=O)Nc1ccc(Cl)c(C(=O)Nc2ccc(F)cc2F)c1` [Ia-22], the “Wirkung (Abtötung in %)” value in data set [1] is recorded as 100%; in data set [7] it was 100%; in data set [8], 90%. Further, the Wirkung in data set [2], in data set [3], in data set [4] and in data set [5] was 100% each time. In addition, the chromatographic logP in data set [6] came out at 4.05.
On to `Cn1nc(C(F)(F)C(F)(F)F)c(C(F)(F)F)c1C(=O)Nc1ccc(Cl)c(C(=O)Nc2cc(Cl)ccn2)c1` [Ia-26], for which the “Wirkung (Abtötung in %)” value in data set [1] is listed as 80%; in data set [7] it was 100%; in data set [8], 80%. Further, the Wirkung in data set [2] was 100%; in data set [3], 100%; in data set [4], 100%; in data set [5], 90%. For the same compound, in data set [6], the chromatographic logP is 4.17.
With `Cn1nc(C(F)(F)C(F)(F)F)c(C(F)(F)F)c1C(=O)Nc1ccc(Cl)c(C(=O)Nc2ccc(Cl)cc2)c1` [Ia-28], the “Wirkung (Abtötung in %)” value was determined as 80% in data set [1] and 100% in data set [7]. Also, the Wirkung was 100% in data set [2], 100% in data set [3], 100% in data set [4] and 80% in data set [5]. In data set [6], this compound had a chromatographic logP of 4.23.
Take `Cc1cc(NC(=O)c2cc(NC(=O)c3c(C(F)(F)F)c(C(F)(F)C(F)(F)F)nn3C)ccc2Cl)ccc1F` [Ia-29]: the “Wirkung (Abtötung in %)” value in data set [1] turned out to be 90%; in data set [7], 100%. For the same compound, the Wirkung in data set [2], in data set [3] and in data set [4] was 100% in each case. The compound also returned a chromatographic logP in data set [6] of 4.23.
Take `Cn1nc(C(F)(F)C(F)(F)F)c(C(F)(F)F)c1C(=O)Nc1ccc(Cl)c(C(=O)Nc2cccc(Cl)c2)c1` [Ia-30]: the “Wirkung (Abtötung in %)” value was 90% in data set [1] and 100% in data set [7]. The Wirkung in data set [2] came to 100%; in data set [3], 100%; in data set [4], 100%; in data set [5] it was 90%. For the same compound, the chromatographic logP in data set [6] came to 4.28.
As to `Cn1nc(C(F)(F)C(F)(F)F)c(C(F)(F)F)c1C(=O)Nc1ccc(Cl)c(C(=O)Nc2ccc(C(F)(F)F)cc2)c1` [Ia-36], in data set [7], the “Wirkung (Abtötung in %)” value was found to be 90%. For the same compound, the Wirkung in data set [2], in data set [3] and in data set [4] was 100% each time. Moreover, the chromatographic logP in data set [6] was found to be 4.4.

Source of the values: patent EP2253617A1, “Halogenated compounds as pesticides” (Bayer CropScience AG, priority 2009, dated 2010).
